{
  "source": "paper PMC6199744",
  "about": "“Development of Chemical Proteomics for the Folateome and Analysis of the Kinetoplastid Folateome” (ACS Infectious Diseases, 2018)",
  "format_in_all_cases": "binding",
  "key": {"[1]": {"biological_target": "T1, HeLa cell extract proteins (Homo sapiens, UniProt Q9UIA9)", "T1 construct": "endogenous in cells; host or cells: HeLa cell extract", "T1 sequence (Q9UIA9 1-1087)": "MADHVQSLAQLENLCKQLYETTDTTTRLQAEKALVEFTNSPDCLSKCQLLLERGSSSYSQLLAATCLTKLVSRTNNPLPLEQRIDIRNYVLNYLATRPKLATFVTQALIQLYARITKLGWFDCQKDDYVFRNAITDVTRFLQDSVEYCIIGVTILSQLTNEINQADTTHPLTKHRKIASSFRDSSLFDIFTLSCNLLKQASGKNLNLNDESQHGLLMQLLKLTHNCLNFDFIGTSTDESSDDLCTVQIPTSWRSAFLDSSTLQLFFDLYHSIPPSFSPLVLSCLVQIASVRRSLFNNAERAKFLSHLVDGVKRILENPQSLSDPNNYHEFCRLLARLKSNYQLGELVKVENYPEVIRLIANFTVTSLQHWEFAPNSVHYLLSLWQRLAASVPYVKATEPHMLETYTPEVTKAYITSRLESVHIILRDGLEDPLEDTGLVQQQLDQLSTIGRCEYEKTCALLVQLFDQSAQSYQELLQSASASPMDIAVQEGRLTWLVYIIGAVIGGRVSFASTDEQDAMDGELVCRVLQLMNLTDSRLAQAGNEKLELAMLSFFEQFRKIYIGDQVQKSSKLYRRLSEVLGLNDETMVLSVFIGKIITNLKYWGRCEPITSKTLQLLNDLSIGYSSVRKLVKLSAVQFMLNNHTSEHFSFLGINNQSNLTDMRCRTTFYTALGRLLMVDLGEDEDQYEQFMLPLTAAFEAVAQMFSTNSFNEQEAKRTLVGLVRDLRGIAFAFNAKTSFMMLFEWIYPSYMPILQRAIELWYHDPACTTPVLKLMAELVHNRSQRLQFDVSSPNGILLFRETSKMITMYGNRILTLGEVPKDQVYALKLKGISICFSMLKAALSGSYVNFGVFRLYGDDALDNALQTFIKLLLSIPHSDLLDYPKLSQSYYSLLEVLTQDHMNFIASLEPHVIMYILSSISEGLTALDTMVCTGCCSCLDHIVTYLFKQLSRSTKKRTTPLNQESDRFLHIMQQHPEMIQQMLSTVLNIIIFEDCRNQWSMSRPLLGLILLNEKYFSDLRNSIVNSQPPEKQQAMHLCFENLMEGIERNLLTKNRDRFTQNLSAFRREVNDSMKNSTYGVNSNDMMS", "conditions": "HeLa; protein XPO7"}, "[2]": {"biological_target": "T2, HeLa cell extract proteins (Homo sapiens, UniProt O75600)", "T2 construct": "endogenous in cells; host or cells: HeLa cell extract", "T2 sequence (O75600 22-419)": "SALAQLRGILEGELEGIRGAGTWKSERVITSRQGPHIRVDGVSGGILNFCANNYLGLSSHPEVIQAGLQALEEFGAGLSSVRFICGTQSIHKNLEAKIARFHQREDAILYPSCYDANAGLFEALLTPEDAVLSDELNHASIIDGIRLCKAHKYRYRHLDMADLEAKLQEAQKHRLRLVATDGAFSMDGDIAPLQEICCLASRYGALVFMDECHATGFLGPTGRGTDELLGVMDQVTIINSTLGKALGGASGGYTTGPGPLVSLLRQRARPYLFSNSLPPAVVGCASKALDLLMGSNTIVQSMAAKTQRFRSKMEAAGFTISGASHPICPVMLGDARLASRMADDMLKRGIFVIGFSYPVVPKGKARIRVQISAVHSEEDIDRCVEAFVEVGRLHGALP", "conditions": "protein GCAT; HeLa"}, "[3]": {"biological_target": "T3, HeLa cell extract proteins (Homo sapiens, UniProt O43776)", "T3 construct": "endogenous in cells; host or cells: HeLa cell extract", "T3 sequence (O43776 1-548)": "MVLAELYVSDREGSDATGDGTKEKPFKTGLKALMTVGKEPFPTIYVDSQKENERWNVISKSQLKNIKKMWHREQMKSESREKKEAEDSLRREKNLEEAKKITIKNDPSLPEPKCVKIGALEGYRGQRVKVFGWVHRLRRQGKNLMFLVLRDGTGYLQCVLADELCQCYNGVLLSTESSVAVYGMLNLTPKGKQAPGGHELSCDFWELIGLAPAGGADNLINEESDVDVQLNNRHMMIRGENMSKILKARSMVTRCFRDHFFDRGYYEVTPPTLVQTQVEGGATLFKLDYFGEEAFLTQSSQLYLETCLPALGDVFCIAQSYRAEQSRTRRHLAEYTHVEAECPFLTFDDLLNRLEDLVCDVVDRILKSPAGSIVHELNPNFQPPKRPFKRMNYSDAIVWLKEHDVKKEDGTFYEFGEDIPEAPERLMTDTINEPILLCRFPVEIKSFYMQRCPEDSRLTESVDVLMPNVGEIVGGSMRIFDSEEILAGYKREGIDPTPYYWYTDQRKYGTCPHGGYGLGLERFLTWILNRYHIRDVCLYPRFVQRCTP", "conditions": "protein NARS; HeLa"}, "[4]": {"biological_target": "T4, HeLa cell extract proteins (Homo sapiens, UniProt Q12904)", "T4 construct": "endogenous in cells; host or cells: HeLa cell extract", "T4 sequence (Q12904 1-312)": "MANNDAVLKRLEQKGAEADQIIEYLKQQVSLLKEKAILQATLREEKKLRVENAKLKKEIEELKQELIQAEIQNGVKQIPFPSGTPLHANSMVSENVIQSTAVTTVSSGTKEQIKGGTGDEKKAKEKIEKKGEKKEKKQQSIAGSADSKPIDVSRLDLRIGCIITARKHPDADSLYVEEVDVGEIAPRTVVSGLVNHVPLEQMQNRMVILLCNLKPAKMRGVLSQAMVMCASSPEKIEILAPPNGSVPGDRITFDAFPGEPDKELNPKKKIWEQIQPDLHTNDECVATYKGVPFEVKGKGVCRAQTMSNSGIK"}, "[5]": {"biological_target": "T5, HeLa cell extract proteins (Homo sapiens, UniProt Q93008)", "T5 construct": "endogenous in cells; host or cells: HeLa cell extract", "T5 sequence (Q93008 whole entry)": "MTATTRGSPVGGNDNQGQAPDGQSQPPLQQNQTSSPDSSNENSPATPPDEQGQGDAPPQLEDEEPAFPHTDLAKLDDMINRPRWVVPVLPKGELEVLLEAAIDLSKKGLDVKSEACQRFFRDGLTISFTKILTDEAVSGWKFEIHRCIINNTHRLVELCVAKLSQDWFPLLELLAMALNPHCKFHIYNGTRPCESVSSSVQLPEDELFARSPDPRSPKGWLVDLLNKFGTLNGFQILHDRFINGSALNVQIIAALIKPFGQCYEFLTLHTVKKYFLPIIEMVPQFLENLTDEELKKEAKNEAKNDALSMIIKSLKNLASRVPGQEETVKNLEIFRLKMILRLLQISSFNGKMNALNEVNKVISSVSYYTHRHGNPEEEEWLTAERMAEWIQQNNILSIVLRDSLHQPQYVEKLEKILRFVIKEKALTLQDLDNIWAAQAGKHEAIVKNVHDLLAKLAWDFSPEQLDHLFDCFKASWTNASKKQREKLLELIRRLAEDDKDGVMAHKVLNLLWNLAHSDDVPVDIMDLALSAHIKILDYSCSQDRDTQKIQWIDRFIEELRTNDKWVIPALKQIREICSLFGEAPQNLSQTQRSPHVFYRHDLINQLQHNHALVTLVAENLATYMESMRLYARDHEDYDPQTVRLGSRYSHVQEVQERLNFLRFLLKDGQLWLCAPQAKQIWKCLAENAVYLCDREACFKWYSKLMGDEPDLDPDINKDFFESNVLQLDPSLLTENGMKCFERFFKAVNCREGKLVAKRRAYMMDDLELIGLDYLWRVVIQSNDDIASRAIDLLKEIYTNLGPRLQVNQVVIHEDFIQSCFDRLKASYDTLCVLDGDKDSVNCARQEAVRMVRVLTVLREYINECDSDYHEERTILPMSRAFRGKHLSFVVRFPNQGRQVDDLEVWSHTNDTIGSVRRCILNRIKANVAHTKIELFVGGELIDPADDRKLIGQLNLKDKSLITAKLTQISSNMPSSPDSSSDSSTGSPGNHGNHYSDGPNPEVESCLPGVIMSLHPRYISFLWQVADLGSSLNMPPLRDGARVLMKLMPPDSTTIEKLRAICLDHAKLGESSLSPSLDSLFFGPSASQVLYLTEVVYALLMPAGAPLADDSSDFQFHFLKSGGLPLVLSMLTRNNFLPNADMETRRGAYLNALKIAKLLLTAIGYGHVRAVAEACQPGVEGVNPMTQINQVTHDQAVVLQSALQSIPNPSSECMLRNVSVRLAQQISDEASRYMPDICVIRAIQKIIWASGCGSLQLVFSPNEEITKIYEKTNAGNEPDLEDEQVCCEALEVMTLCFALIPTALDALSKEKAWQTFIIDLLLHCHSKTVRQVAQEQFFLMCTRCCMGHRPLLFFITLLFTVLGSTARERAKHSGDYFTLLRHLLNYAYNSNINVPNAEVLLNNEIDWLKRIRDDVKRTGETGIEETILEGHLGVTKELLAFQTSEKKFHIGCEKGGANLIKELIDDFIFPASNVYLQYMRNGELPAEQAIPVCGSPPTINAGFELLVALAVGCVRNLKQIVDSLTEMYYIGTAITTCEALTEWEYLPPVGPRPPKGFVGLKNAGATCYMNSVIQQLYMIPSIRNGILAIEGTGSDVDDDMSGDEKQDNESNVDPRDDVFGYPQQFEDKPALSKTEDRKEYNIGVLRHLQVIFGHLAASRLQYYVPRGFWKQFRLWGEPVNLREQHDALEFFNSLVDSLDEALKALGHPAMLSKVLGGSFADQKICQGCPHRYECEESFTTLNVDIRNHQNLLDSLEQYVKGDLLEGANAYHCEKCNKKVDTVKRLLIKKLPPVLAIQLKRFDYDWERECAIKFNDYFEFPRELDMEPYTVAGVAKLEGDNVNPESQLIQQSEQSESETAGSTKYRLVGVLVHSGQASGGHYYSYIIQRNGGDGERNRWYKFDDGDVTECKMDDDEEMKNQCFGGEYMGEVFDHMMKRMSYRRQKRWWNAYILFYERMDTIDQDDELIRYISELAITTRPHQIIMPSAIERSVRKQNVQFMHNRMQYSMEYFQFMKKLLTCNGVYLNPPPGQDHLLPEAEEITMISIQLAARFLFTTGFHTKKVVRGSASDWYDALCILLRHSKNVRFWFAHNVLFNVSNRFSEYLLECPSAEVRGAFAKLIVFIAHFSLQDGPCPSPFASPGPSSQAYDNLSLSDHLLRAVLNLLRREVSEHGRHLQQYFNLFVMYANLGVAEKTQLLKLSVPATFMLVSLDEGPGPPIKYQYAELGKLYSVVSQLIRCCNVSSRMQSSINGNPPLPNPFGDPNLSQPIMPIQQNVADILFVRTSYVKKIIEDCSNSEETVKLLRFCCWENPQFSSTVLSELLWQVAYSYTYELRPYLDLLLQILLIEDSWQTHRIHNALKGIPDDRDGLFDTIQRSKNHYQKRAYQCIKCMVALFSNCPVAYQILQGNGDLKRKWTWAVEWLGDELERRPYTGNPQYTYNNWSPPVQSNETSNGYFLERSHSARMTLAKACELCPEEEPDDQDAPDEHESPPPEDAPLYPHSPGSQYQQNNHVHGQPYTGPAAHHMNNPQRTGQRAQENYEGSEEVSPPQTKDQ"}, "[6]": {"biological_target": "T6, HeLa cell extract proteins (Homo sapiens, UniProt O60232)", "T6 construct": "endogenous in cells; host or cells: HeLa cell extract", "T6 sequence (O60232 1-199)": "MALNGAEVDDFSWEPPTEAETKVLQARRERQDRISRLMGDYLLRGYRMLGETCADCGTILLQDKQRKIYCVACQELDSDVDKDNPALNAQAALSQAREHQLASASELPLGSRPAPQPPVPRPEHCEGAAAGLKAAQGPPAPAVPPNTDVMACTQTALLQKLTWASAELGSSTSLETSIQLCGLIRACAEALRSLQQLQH"}, "[7]": {"biological_target": "T7, HeLa cell extract proteins (Homo sapiens, UniProt P19105)", "T7 construct": "endogenous in cells; host or cells: HeLa cell extract", "T7 sequence (P19105 1-171)": "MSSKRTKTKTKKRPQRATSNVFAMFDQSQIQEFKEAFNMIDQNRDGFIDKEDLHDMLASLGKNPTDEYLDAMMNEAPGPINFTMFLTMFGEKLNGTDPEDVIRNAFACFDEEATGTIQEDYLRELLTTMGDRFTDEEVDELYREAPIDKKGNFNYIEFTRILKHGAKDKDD"}, "[8]": {"conditions": "HeLa, protein MRCL3 (MYOSIN REGULATORY LIGHT CHAIN MRCL3 VARIANT)"}},
  "note": "Read-outs that look alike come from different tables or passages of the source.",
  "data": [
    {"smiles": "Nc1nc2cccc(-c3ccccc3)c2n1Cc1ccc(Cl)c(Cl)c1", "note": "[compound 3]", "values": [
      {"measurement": "fold changes relative to vehicle control", "setting": "[1]", "value": 0.98},
      {"measurement": "fold changes relative to vehicle control", "setting": "[2]", "value": 1.03},
      {"measurement": "fold changes relative to vehicle control", "setting": "[3]", "value": 1.28}
    ]},
    {"smiles": "CCCCCCOc1ccc(Cc2cnc(N)nc2N)cc1", "note": "[compound 1]", "values": [
      {"measurement": "fold changes relative to vehicle control", "setting": "[1]", "value": 0.88},
      {"measurement": "fold changes relative to vehicle control", "setting": "[2]", "value": 0.95},
      {"measurement": "fold changes relative to vehicle control", "setting": "[3]", "value": 1.11}
    ]},
    {"smiles": "NCCCNc1ccc(C(=O)NC(CCC(=O)O)C(=O)O)cc1", "note": "(stereo not shown) [compound 7]", "values": [
      {"measurement": "fold changes relative to vehicle control", "setting": "[4]; HeLa, protein SCYE1", "value": 0.86},
      {"measurement": "fold changes relative to vehicle control", "setting": "[5]; HeLa, captured protein USP9X", "value": 1.26},
      {"measurement": "fold changes relative to vehicle control", "setting": "[6]; protein SSSCA1, HeLa", "value": 1.07},
      {"measurement": "fold changes relative to vehicle control", "setting": "[7]; [8]", "value": 0.93}
    ]},
    {"smiles": "CCCCCCOc1cccc(Cc2cnc(N)nc2N)c1", "note": "[compound 2]", "values": [
      {"measurement": "fold changes relative to vehicle control", "setting": "[1]", "value": 1.28},
      {"measurement": "fold changes relative to vehicle control", "setting": "[2]", "value": 1.14},
      {"measurement": "fold changes relative to vehicle control", "setting": "[3]", "value": 2.06}
    ]},
    {"smiles": "NCCOCCOCC(=O)Nc1nc2ncc(CNc3ccc(C(=O)NC(CCC(=O)O)C(=O)O)cc3)nc2c(=O)[nH]1", "note": "(stereo not shown) [compound 6]", "values": [
      {"measurement": "fold changes relative to vehicle control", "setting": "[4]; HeLa, protein SCYE1", "value": 0.99},
      {"measurement": "fold changes relative to vehicle control", "setting": "[5]; HeLa, captured protein USP9X", "value": 1.31},
      {"measurement": "fold changes relative to vehicle control", "setting": "[6]; protein SSSCA1, HeLa", "value": 1.13},
      {"measurement": "fold changes relative to vehicle control", "setting": "[7]; [8]", "value": 1.43}
    ]},
    {"smiles": "Nc1nc2[nH]cc(CCc3ccc(C(=O)N[C@@H](CCC(=O)O)C(=O)O)cc3)c2c(=O)[nH]1", "note": "[PTX, pemetrexed]", "values": [
      {"measurement": "fold changes relative to vehicle control", "setting": "[4]", "value": 0.91},
      {"measurement": "fold changes relative to vehicle control", "setting": "[5]", "value": 1.17},
      {"measurement": "fold changes relative to vehicle control", "setting": "[6]", "value": 0.94},
      {"measurement": "fold changes relative to vehicle control", "setting": "[7]", "value": 0.9}
    ]},
    {"smiles": "Nc1nc2c(c(=O)[nH]1)N(C=O)C(CNc1ccc(C(=O)N[C@@H](CCC(=O)O)C(=O)O)cc1)CN2", "note": "(stereo partly shown) [LEU, leucovorin]", "values": [
      {"measurement": "fold changes relative to vehicle control", "setting": "[4]; HeLa, protein SCYE1", "value": 0.85},
      {"measurement": "fold changes relative to vehicle control", "setting": "[5]; HeLa, captured protein USP9X", "value": 1.13},
      {"measurement": "fold changes relative to vehicle control", "setting": "[6]; protein SSSCA1, HeLa", "value": 0.95},
      {"measurement": "fold changes relative to vehicle control", "setting": "[7]; [8]", "value": 0.8}
    ]}
  ]
}
